Values quoted from earlier work, collected in patent US11571373B2, “Skin care preparations for babies” (priority 2015, dated 2023).

Legend:
[1] = species and route not given
[2] = in vivo

Molecule: [O-2].[Zn+2] [Zinc oxide (CI 77947), Zinc oxide]
- solubility in water: 0.00016 g/100 ml water

Molecule: Disodium Laureth Sulfosuccinate
- The actual or estimated LD50 value [1]: 5,000 mg/kg body weight

Molecule: C12-C13 Pareth-4
- The actual or estimated LD50 value [1]: 2,000 mg/kg body weight

Molecule: Sodium Cocoamphoacetate
- The actual or estimated LD50 value [1]: 14,859 mg/kg body weight
- Oral LD50 value (rat) (rat): 14,859 mg/kg

Molecule: Tocopherol
- average absorption [2]: 40-60%
- share transported via the lymphatic system into the bloodstream [2]: About 90%
- extent of oral absorption ([2]; po): 20-80%
